Counter-ions that a name gives are not always drawn. Active and inactive are the calls of the source. The rule behind the calls is not given here. *1 amine or outer side, *2 acyl side, *3 side chain or, on linkers, in order; H or OH if unused. Where a SMILES comes first, the peptide text is derived from it. Bridges are numbered along the chain shown (N, C = ends). Side-chain parts run from the residue outwards. [ ]: non-standard residue; d: D form. The star is where a group is joined. NH(2-Me-phenyl) = Cc1ccccc1N*; X1 = CC[C@H](C)CCCCC(=O)*; Dab = NCC[C@H](N)C(=O)O; CO = O=C([*:1])[*:2]; Tfa = O=C(C(F)(F)F)*
Tests used:
Escherichia coli [1] = experiment: Antibacterial activity against Escherichia coli assessed as reduction in microbial growth after 24 hrs by microplate reader method; format: functional
Pseudomonas aeruginosa [2] = experiment: Antibacterial activity against Pseudomonas aeruginosa assessed as reduction in microbial growth after 24 hrs by microplate reader method; format: functional
Staphylococcus aureus [3] = experiment: Antibacterial activity against Staphylococcus aureus assessed as reduction in microbial growth after 24 hrs by microplate reader method; format: functional
Staphylococcus aureus [4] = experiment: Synergistic antibacterial activity against Staphylococcus aureus assessed as fractional inhibitory concentration index incubated for 24 hrs in presence of streptomycin; format: functional
Lipid bilayer [5] = experiment: Binding affinity to bacterial inner membrane mimic POPE/POPG (3:1) LUVs assessed as increase in intensity by one-dimensional 19F NMR based analysis
Lipid bilayer [6] = experiment: Binding affinity to mammalian membrane mimic DOPC/40% cholesterol assessed as calcein leakage at 20 uM by fluorescence based assay; format: ADME
Pseudomonas aeruginosa [7] = experiment: Potentiation of polymyxin B-induced antibacterial activity against Pseudomonas aeruginosa assessed as polymyxin B MIC incubated for 24 hrs by microplate reader method; format: functional
Staphylococcus aureus [8] = experiment: Potentiation of streptomycin-induced antibacterial activity against Staphylococcus aureus assessed as streptomycin MIC incubated for 24 hrs by microplate reader method; format: functional
Escherichia coli [9] = experiment: Potentiation of polymyxin B-induced antibacterial activity against Escherichia coli assessed as polymyxin B MIC incubated for 24 hrs by microplate reader method; format: functional
[10] = target: NAD-dependent histone deacetylase SIR2 (Saccharomyces cerevisiae S288c) (UniProt P06700); experiment: Inhibition of yeast sirtuin2-mediated Ura3 transcriptional silencing at telomeric locus assessed as yeast killing at 50 uM incubated for 72 hrs in presence of FOA by absorbance based analysis
NAD-dependent histone deacetylase SIR2 (Saccharomyces cerevisiae S288c), sequence (P06700 whole entry): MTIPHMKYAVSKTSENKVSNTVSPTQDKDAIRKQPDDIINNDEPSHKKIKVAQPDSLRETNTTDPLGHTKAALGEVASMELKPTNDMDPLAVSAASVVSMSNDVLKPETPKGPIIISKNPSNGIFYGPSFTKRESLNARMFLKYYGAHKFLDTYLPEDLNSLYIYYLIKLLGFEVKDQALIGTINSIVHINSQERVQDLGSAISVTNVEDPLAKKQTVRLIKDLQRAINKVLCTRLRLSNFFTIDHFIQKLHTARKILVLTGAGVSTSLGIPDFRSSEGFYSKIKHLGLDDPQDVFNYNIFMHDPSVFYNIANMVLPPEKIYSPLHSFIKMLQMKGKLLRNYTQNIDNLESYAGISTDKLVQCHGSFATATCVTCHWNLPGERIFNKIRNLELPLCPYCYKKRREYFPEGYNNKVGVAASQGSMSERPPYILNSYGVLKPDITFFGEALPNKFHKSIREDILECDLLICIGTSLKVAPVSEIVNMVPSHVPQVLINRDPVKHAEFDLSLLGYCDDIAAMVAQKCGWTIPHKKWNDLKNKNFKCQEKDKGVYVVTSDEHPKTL

Escherichia coli [11] = experiment: Antibacterial activity against Escherichia coli assessed as reduction in microbial growth after 24 hrs in presence of polymyxin B by microplate reader method; format: functional
Staphylococcus aureus [12] = experiment: Antibacterial activity against Staphylococcus aureus assessed as reduction in microbial growth after 24 hrs in presence of streptomycin by microplate reader method; format: functional
Staphylococcus aureus [13] = experiment: Antibiofilm activity against Staphylococcus aureus assessed as biofilm eradication incubated for 24 hrs by crystal violet staining assay; format: functional
Escherichia coli [14] = experiment: Antibiofilm activity against Escherichia coli assessed as biofilm eradication incubated for 24 hrs by crystal violet staining assay; format: functional
Staphylococcus aureus [15] = experiment: Antibiofilm activity against Staphylococcus aureus assessed as inhibition of biofilm formation incubated for 48 hrs by crystal violet staining assay; format: functional
Escherichia coli [16] = experiment: Antibiofilm activity against Escherichia coli assessed as as inhibition of biofilm formation incubated for 48 hrs by crystal violet staining assay; format: functional
Cell membrane [17] = experiment: Disruption of membrane integrity in Escherichia coli at 2 times MIC measured after 20 mins by SEM analysis
Cell membrane [18] = experiment: Disruption of membrane integrity in Staphylococcus aureus at 2 times MIC measured after 20 mins by SEM analysis
Escherichia coli [19] = experiment: Synergistic antibacterial activity against Escherichia coli assessed as fractional inhibitory concentration index incubated for 24 hrs in presence of Polymyxin B; format: functional
Pseudomonas aeruginosa [20] = experiment: Synergistic antibacterial activity against Pseudomonas aeruginosa assessed as fractional inhibitory concentration index incubated for 24 hrs in presence of Polymyxin B; format: functional
Lipid bilayer [21] = experiment: Binding affinity to bacterial inner membrane mimic DOPE/DOPG (3:1) large unilamellar vesicles assessed as calcein leakage at 20 uM by fluorescence based assay
[22] = Hemolytic activity against mouse RBC at 1000 uM measured after 1 hr by microplate reader analysis; format: cell-based, Erythrocyte; conditions: mouse red blood cells (erythrocytes), read-out: Activity
HeLa = experiment: Cytotoxicity against human HeLa cells assessed as reduction in cell viability incubated for 48 hrs by MTT assay; format: cell-based
BE(2)-C = experiment: Cytotoxicity against human BE(2)-C cells assessed as reduction in cell viability incubated for 48 hrs by MTT assay; format: cell-based
Staphylococcus aureus [23] = experiment: Antibiofilm activity against Staphylococcus aureus assessed as biofilm eradication at 2XMBEC incubated for 12 hrs by SYTO9/PI staining based microscopic analysis; format: functional, organism-based
Escherichia coli [24] = experiment: Antibiofilm activity against Escherichia coli assessed as biofilm eradication at 2XMBEC incubated for 12 hrs by SYTO9/PI staining based microscopic analysis; format: functional, organism-based
[25] = Inhibition of transcriptional machinery using Puc19-lacCONS plasmid DNA and Escherichia coli RNA polymerase-sigma70 holoenzyme at 40 uM incubated for 35 mins followed by NTP addition for 30 mins by spectrofluorometer analysis; format: functional; conditions: time 65.0 min
Pseudomonas aeruginosa [26] = experiment: Antibacterial activity against Pseudomonas aeruginosa assessed as reduction in microbial growth after 24 hrs in presence of polymyxin B by microplate reader method; format: functional
Staphylococcus aureus [27] = experiment: Potentiation of streptomycin-induced antibacterial activity against Staphylococcus aureus assessed as fold change in streptomycin MIC incubated for 24 hrs by microplate reader method; format: functional
Cell membrane [28] = experiment: Disruption of membrane integrity in Escherichia coli at 2 times MIC by TEM analysis
Lipid bilayer [29] = experiment: Binding affinity to bacterial inner membrane mimic DOPE/DOPG (3:1) large unilamellar vesicles assessed as calcein leakage at 2.5 uM by fluorescence based assay
Cell membrane [30] = experiment: Disruption of membrane integrity in Staphylococcus aureus at 2 times MIC by TEM analysis
Cell membrane [31] = experiment: Disruption of membrane integrity in Escherichia coli assessed as cellular leakage at 2 times MIC by TEM analysis
[32] = Inhibition of transcriptional machinery using Puc19-lacCONS plasmid DNA and Escherichia coli RNA polymerase-sigma70 holoenzyme at 10 uM incubated for 35 mins followed by NTP addition for 30 mins by spectrofluorometer analysis; format: functional; conditions: time 65.0 min

Structure (SMILES)	MIC (Escherichia coli [1]) [µM]	MIC (Pseudomonas aeruginosa [2]) [µM]	MIC (Staphylococcus aureus [3]) [µM]	fractional inhibitory concentration index (FICI) (Staphylococcus aureus [4])	Activity (Lipid bilayer [5])	Activity (Lipid bilayer [6]) [%]	MIC (Pseudomonas aeruginosa [7]) [µM]	MIC (Staphylococcus aureus [8]) [µM]	MIC (Escherichia coli [9]) [µM]	inhibition [10]	MIC (Escherichia coli [11]) [µM]	MIC (Staphylococcus aureus [12]) [µM]	MBEC (Staphylococcus aureus [13]) [µM]	MBEC (Escherichia coli [14])	MBIC (Staphylococcus aureus [15]) [µM]	MBIC (Escherichia coli [16])	Activity (Cell membrane [17])	Activity (Cell membrane [18])	fractional inhibitory concentration index (FICI) (Escherichia coli [19])	fractional inhibitory concentration index (FICI) (Pseudomonas aeruginosa [20])	also measured
CC[C@H](C)CCCCC(=O)N[C@@H](CCN)C(=O)N[C@H](C(=O)N[C@@H](CCN)C(=O)N[C@H]1CCNC(=O)[C@H]([C@@H](C)O)NC(=O)[C@H](CCN)NC(=O)[C@H](CCN)NC(=O)[C@H](CC(C)C)NC(=O)[C@@H](Cc2ccccc2)NC(=O)[C@H](CCN)NC1=O)[C@@H](C)O (X1-[Dab]T[Dab][Dab][Dab][dF]L[Dab][Dab]T; lactam 4-C)	0.09	0.15																			
CC(=O)N[C@@H](Cc1ccc(O)cc1)C(=O)NCC(=O)N[C@@H](CCCNC(=N)N)C(=O)N[C@@H](CCCCN)C(=O)N[C@@H](CCCCN)C(=O)N[C@@H](CCCNC(=N)N)C(=O)N[C@@H](CCCNC(=N)N)C(=O)N[C@@H](CCC(N)=O)C(=O)N[C@@H](CCCNC(=N)N)C(=O)N[C@@H](CCCNC(=N)N)C(=O)N[C@@H](CCCNC(=N)N)C(=O)NCC(=O)NCC(=O)NCC(=O)N[C@@H](CCCCN)C(=O)NCC(=O)N[C@@H](CC(C)C)C(=O)N[C@@H](CCCNC(=N)N)C(=O)N[C@@H](CCCCNC(=O)Nc1ccccc1C)C(=O)N[C@@H](Cc1ccccc1)C(=O)NCC(=O)N[C@@H](C)C(=O)N[C@@H](CCCCN)C(=O)N[C@@H](CCCNC(=N)N)C(=O)N[C@@H](Cc1cnc[nH]1)C(=O)N[C@@H](CCCNC(=N)N)C(=O)N[C@@H](CS)C(=O)O (Ac-YGRKKRRQRRRGGGKGLRK([CO-NH(2-Me-phenyl)])FGAKRHRC-OH)	1.5	25	0.2																		
CC(=O)N[C@@H](CCCCN)C(=O)NCC(=O)N[C@@H](CC(C)C)C(=O)N[C@@H](CCCNC(=N)N)C(=O)N[C@@H](CCCCNC(=O)C(F)(F)F)C(=O)N[C@@H](Cc1ccccc1)C(=O)NCC(=O)N[C@@H](C)C(=O)N[C@@H](CCCCNC(=O)C(F)(F)F)C(=O)N[C@@H](CCCNC(=N)N)C(=O)N[C@@H](Cc1cnc[nH]1)C(=O)N[C@@H](CCCNC(=N)N)C(=O)N[C@@H](CS)C(N)=O (Ac-KGLRK(Tfa)FGAK(Tfa)RHRC-NH2)	125	> 250	1.5	0.3	Active	< 20	0.1	0.38	0.05	Active	7.81	0.63	12.5	inactive	6.3	inactive	inactive	inactive	0.19	0.36	Activity (Lipid bilayer [21]): 70%; hemolysis at 1 h, 1000 µM [22]: < 5%; IC50 (HeLa): 84.4 µM; IC50 (BE(2)-C): 81.6 µM; Activity (Staphylococcus aureus [23]): Active; Activity (Escherichia coli [24]): Active; inhibition [25]: Active; MIC (Pseudomonas aeruginosa [26]): 25 µM; fold change (FC) (Staphylococcus aureus [27]): 6
CN[C@@H]1[C@H](O[C@H]2[C@H](O[C@H]3[C@H](O)[C@@H](O)[C@H](N=C(N)N)[C@@H](O)[C@@H]3N=C(N)N)O[C@@H](C)[C@]2(O)C=O)O[C@@H](CO)[C@H](O)[C@H]1O [STREPTOMYCIN]			2.2																		
CC(=O)N[C@@H](Cc1ccc(O)cc1)C(=O)NCC(=O)N[C@@H](CCCNC(=N)N)C(=O)N[C@@H](CCCCN)C(=O)N[C@@H](CCCCN)C(=O)N[C@@H](CCCNC(=N)N)C(=O)N[C@@H](CCCNC(=N)N)C(=O)N[C@@H](CCC(N)=O)C(=O)N[C@@H](CCCNC(=N)N)C(=O)N[C@@H](CCCNC(=N)N)C(=O)N[C@@H](CCCNC(=N)N)C(=O)O	50	> 100	1.5																		
CC(=O)N[C@@H](Cc1ccc(O)cc1)C(=O)NCC(=O)N[C@@H](CCCNC(=N)N)C(=O)N[C@@H](CCCCN)C(=O)N[C@@H](CCCCN)C(=O)N[C@@H](CCCNC(=N)N)C(=O)N[C@@H](CCCNC(=N)N)C(=O)N[C@@H](CCC(N)=O)C(=O)N[C@@H](CCCNC(=N)N)C(=O)N[C@@H](CCCNC(=N)N)C(=O)N[C@@H](CCCNC(=N)N)C(=O)NCC(=O)NCC(=O)NCC(=O)N[C@@H](CCCCN)C(=O)NCC(=O)N[C@@H](CC(C)C)C(=O)N[C@@H](CCCNC(=N)N)C(=O)N[C@@H](CCCCNC(=O)C(F)(F)F)C(=O)N[C@@H](Cc1ccccc1)C(=O)NCC(=O)N[C@@H](C)C(=O)N[C@@H](CCCCNC(=O)C(F)(F)F)C(=O)N[C@@H](CCCNC(=N)N)C(=O)N[C@@H](Cc1cnc[nH]1)C(=O)N[C@@H](CCCNC(=N)N)C(=O)N[C@@H](CS)C(N)=O (Ac-YGRKKRRQRRRGGGKGLRK(Tfa)FGAK(Tfa)RHRC-NH2)	1.5	25	0.2	0.22	Active	< 20	0.05	0.38	0.1	Active	0.63	0.05	3.2	62.5 µM	0.8	15.6 µM	Active	Active	0.73	0.3	Activity (Cell membrane [28]): Active; Activity (Lipid bilayer [29]): 90%; Activity (Lipid bilayer [21]): Active; hemolysis at 1 h, 1000 µM [22]: < 5%; IC50 (HeLa): 31.6 µM; IC50 (BE(2)-C): 23.4 µM; Activity (Staphylococcus aureus [23]): Active; Activity (Escherichia coli [24]): Active; Activity (Cell membrane [30]): Active; Activity (Cell membrane [31]): Active; inhibition [32]: 100%; MIC (Pseudomonas aeruginosa [26]): 6.25 µM; fold change (FC) (Staphylococcus aureus [27]): 6

Reference: ChEMBL document CHEMBL4814071, “Synthesis and antibacterial study of cell-penetrating peptide conjugated trifluoroacetyl and thioacetyl lysine modified peptides” (Eur J Med Chem, 2021)
